Experimental data: patent US6544964B1, “Method for fixing or separating ions, in particular of lead, using per(3,6-anhydro)cy-clodextrin derivatives” (priority 1997, dated 2003)

Tests used:
[1] = Affinity constant for Pb from the NMR results of examples 2 to 4; format: binding; conditions: aqueous solution (D2O), 298 K
Method: (§1) To an aqueous solution of the permethyl derivative obtained in example 1 is added an aqueous lead nitrate solution in order to obtain an aqueous solution containing 3 mmole/l of permethyl derivative and 1 mmole/l of lead nitrate. The solution obtained is analyzed by nuclear magnetic resonance under the same conditions as in example 1 (500 MHz, D2O, 298 K).
(§2) The same operating procedure as in example 2 is followed, but the aqueous solution incorporates 3 mmole/l of the permethyl derivative of example 1 and 3 mmole/l of lead nitrate.
(§3) The same operating procedure as in example 3 is followed, but addition also takes place of sodium nitrate so as to obtain an aqueous solution incorporating 3 mmole/l of the permethyl derivative of example 1, 3 mmole/l of lead nitrate and 3 mmole/l of sodium nitrate.

[2] = Formation of the lead complex in aqueous solution, followed by proton NMR; format: binding
Method: as §1
In this case, the exchange is sufficiently slow compared with the NMR observation time, to observe the two signals corresponding to the free cyclodextrin (FIG. 1(a)) and to the complex (FIG. 1(b)).
as §2, §3

Substance	affinity constant for Pb [1]	NMR spectrum of the lead complex in presence of sodium ions ([2]; 3 mmole/l derivative, 3 mmole/l lead nitrate, 3 mmole/l sodium nitrate)	lead complexation (respective surfaces of free and complexed parts) ([2]; 3 mmole/l permethyl derivative, 1 mmole/l lead nitrate, D2O, 298 K, 500 MHz, free:complexed 2 for 1)	lead complexation (NMR signals) ([2]; 3 mmole/l permethyl derivative, 3 mmole/l lead nitrate, D2O, 298 K)
hexakis (3,6-anhydro)cyclomaltohexaose [reference compound]	approximately 2500			
Hexakis (3,6-Anhydro-2-0-methyl)cyclomaltohexaose [Example 1]	approximately 10^5	not modified	all the lead present is complexed	only the signals of the complex are visible
